Laboratory results reported in the supplement of paper PMC8882468.
± gives the standard deviation of the averaged measurements.

These molecules were tested on HCI-017.E2 (organoid from an ER-positive breast cancer xenograft) (assay: CTG-3D luminescence at 96 h relative to day-0 seeding control (ratio to day 0); higher = more growth / less cytotoxicity; PDxO 3D drug screen, 96 h, CTG-3D normalised to day-0 seeding control.). Conditions: 1 µM.

Row | Compound | CTG-3D luminescence at 96 h
1 | O=C(O)C1(C(=O)O)CCC1.[NH2-].[NH2-].[Pt+2] [carboplatin] | 2.25 ± 0.091
2 | COc1cc2c(Oc3ccc4[nH]c(C)cc4c3F)ncnc2cc1OCCCN1CCCC1 [cediranib] | 1.751 ± 0.012
3 | C[C@@H]1COCCN1c1cc(C2([S@](C)(=N)=O)CC2)nc(-c2cc[nH]c3nccc2-3)n1 [ceralasertib] | 2.02 ± 0.17
4 | Cc1cc(Nc2ncc(Cl)c(Nc3ccccc3S(=O)(=O)C(C)C)n2)c(OC(C)C)cc1C1CCNCC1 [ceritinib] | 1.988 ± 0.013
5 | O=C(c1ccc(F)c(F)c1Nc1ccc(I)cc1F)N1CC(O)([C@@H]2CCCCN2)C1 [cobimetinib] | 1.889 ± 0.0077
6 | C[C@H](NC(=O)CCC(F)(F)F)C(=O)N[C@@H]1C(=O)N(CCO)c2ncccc2-c2ccccc21 [crenigacestat] | 1.876 ± 0.007
7 | COc1cccc2c1C(=O)c1c(O)c3c(c(O)c1C2=O)C[C@@](O)(C(=O)CO)C[C@@H]3O[C@H]1C[C@H](N)[C@H](O)[C@H](C)O1 [doxorubicin] | 1.2724 ± 0.00052
8 | C[C@]12CC[C@@H]3c4ccc(O)cc4C[C@@H](CCCCCCCCC[S+]([O-])CCCC(F)(F)C(F)(F)F)[C@H]3[C@@H]1CC[C@@H]2O (some centres not stated) [fulvestrant] | 1.53 ± 0.2
9 | Nc1ccn([C@@H]2O[C@H](CO)[C@@H](O)C2(F)F)c(=O)n1 [gemcitabine] | 1.74 ± 0.063

Same assay, conditions: 1 µM; days in culture: 85

Row | Compound | CTG-3D luminescence at 96 h
10 | O=C(O)C1(C(=O)O)CCC1.[NH2-].[NH2-].[Pt+2] [carboplatin] | 2.71
11 | COc1cc2c(Oc3ccc4[nH]c(C)cc4c3F)ncnc2cc1OCCCN1CCCC1 [cediranib] | 2.18
12 | C[C@@H]1COCCN1c1cc(C2([S@](C)(=N)=O)CC2)nc(-c2cc[nH]c3nccc2-3)n1 [ceralasertib] | 2.3
13 | Cc1cc(Nc2ncc(Cl)c(Nc3ccccc3S(=O)(=O)C(C)C)n2)c(OC(C)C)cc1C1CCNCC1 [ceritinib] | 2.49
14 | O=C(c1ccc(F)c(F)c1Nc1ccc(I)cc1F)N1CC(O)([C@@H]2CCCCN2)C1 [cobimetinib] | 1.65
15 | C[C@H](NC(=O)CCC(F)(F)F)C(=O)N[C@@H]1C(=O)N(CCO)c2ncccc2-c2ccccc21 [crenigacestat] | 1.89
16 | COc1cccc2c1C(=O)c1c(O)c3c(c(O)c1C2=O)C[C@@](O)(C(=O)CO)C[C@@H]3O[C@H]1C[C@H](N)[C@H](O)[C@H](C)O1 [doxorubicin] | 1.71
17 | C[C@]12CC[C@@H]3c4ccc(O)cc4C[C@@H](CCCCCCCCC[S+]([O-])CCCC(F)(F)C(F)(F)F)[C@H]3[C@@H]1CC[C@@H]2O (some centres not stated) [fulvestrant] | 1.78
18 | Nc1ccn([C@@H]2O[C@H](CO)[C@@H](O)C2(F)F)c(=O)n1 [gemcitabine] | 1.87

Same assay, conditions: 10 µM

Row | Compound | CTG-3D luminescence at 96 h
19 | O=C(O)C1(C(=O)O)CCC1.[NH2-].[NH2-].[Pt+2] [carboplatin] | 2.08 ± 0.058
20 | COc1cc2c(Oc3ccc4[nH]c(C)cc4c3F)ncnc2cc1OCCCN1CCCC1 [cediranib] | 1.81 ± 0.18
21 | C[C@@H]1COCCN1c1cc(C2([S@](C)(=N)=O)CC2)nc(-c2cc[nH]c3nccc2-3)n1 [ceralasertib] | 1.09 ± 0.1
22 | Cc1cc(Nc2ncc(Cl)c(Nc3ccccc3S(=O)(=O)C(C)C)n2)c(OC(C)C)cc1C1CCNCC1 [ceritinib] | 0.0699 ± 0.078
23 | O=C(c1ccc(F)c(F)c1Nc1ccc(I)cc1F)N1CC(O)([C@@H]2CCCCN2)C1 [cobimetinib] | 1.57 ± 0.049
24 | C[C@H](NC(=O)CCC(F)(F)F)C(=O)N[C@@H]1C(=O)N(CCO)c2ncccc2-c2ccccc21 [crenigacestat] | 1.78 ± 0.18
25 | COc1cccc2c1C(=O)c1c(O)c3c(c(O)c1C2=O)C[C@@](O)(C(=O)CO)C[C@@H]3O[C@H]1C[C@H](N)[C@H](O)[C@H](C)O1 [doxorubicin] | 0.484 ± 0.28
26 | C[C@]12CC[C@@H]3c4ccc(O)cc4C[C@@H](CCCCCCCCC[S+]([O-])CCCC(F)(F)C(F)(F)F)[C@H]3[C@@H]1CC[C@@H]2O (some centres not stated) [fulvestrant] | 1.4 ± 0.1
27 | Nc1ccn([C@@H]2O[C@H](CO)[C@@H](O)C2(F)F)c(=O)n1 [gemcitabine] | 1.54 ± 0.14

Same assay, conditions: 10 µM; days in culture: 85

Row | Compound | CTG-3D luminescence at 96 h
28 | O=C(O)C1(C(=O)O)CCC1.[NH2-].[NH2-].[Pt+2] [carboplatin] | 2.18
29 | COc1cc2c(Oc3ccc4[nH]c(C)cc4c3F)ncnc2cc1OCCCN1CCCC1 [cediranib] | 2.05
30 | C[C@@H]1COCCN1c1cc(C2([S@](C)(=N)=O)CC2)nc(-c2cc[nH]c3nccc2-3)n1 [ceralasertib] | 1.08
31 | Cc1cc(Nc2ncc(Cl)c(Nc3ccccc3S(=O)(=O)C(C)C)n2)c(OC(C)C)cc1C1CCNCC1 [ceritinib] | 0.446
32 | O=C(c1ccc(F)c(F)c1Nc1ccc(I)cc1F)N1CC(O)([C@@H]2CCCCN2)C1 [cobimetinib] | 2.15
33 | C[C@H](NC(=O)CCC(F)(F)F)C(=O)N[C@@H]1C(=O)N(CCO)c2ncccc2-c2ccccc21 [crenigacestat] | 1.57
34 | COc1cccc2c1C(=O)c1c(O)c3c(c(O)c1C2=O)C[C@@](O)(C(=O)CO)C[C@@H]3O[C@H]1C[C@H](N)[C@H](O)[C@H](C)O1 [doxorubicin] | 0.616
35 | C[C@]12CC[C@@H]3c4ccc(O)cc4C[C@@H](CCCCCCCCC[S+]([O-])CCCC(F)(F)C(F)(F)F)[C@H]3[C@@H]1CC[C@@H]2O (some centres not stated) [fulvestrant] | 1.41
36 | Nc1ccn([C@@H]2O[C@H](CO)[C@@H](O)C2(F)F)c(=O)n1 [gemcitabine] | 1.29

Same assay, conditions: 100 µM

Row | Compound | CTG-3D luminescence at 96 h
37 | O=C(O)C1(C(=O)O)CCC1.[NH2-].[NH2-].[Pt+2] [carboplatin] | 1.9 ± 0.16
38 | COc1cc2c(Oc3ccc4[nH]c(C)cc4c3F)ncnc2cc1OCCCN1CCCC1 [cediranib] | 0.00813 ± 0.002
39 | C[C@@H]1COCCN1c1cc(C2([S@](C)(=N)=O)CC2)nc(-c2cc[nH]c3nccc2-3)n1 [ceralasertib] | 0.8168 ± 0.007
40 | Cc1cc(Nc2ncc(Cl)c(Nc3ccccc3S(=O)(=O)C(C)C)n2)c(OC(C)C)cc1C1CCNCC1 [ceritinib] | -0.00443 ± 0.0012
41 | O=C(c1ccc(F)c(F)c1Nc1ccc(I)cc1F)N1CC(O)([C@@H]2CCCCN2)C1 [cobimetinib] | 0.00898 ± 0.0081
42 | C[C@H](NC(=O)CCC(F)(F)F)C(=O)N[C@@H]1C(=O)N(CCO)c2ncccc2-c2ccccc21 [crenigacestat] | 1.78 ± 0.23
43 | COc1cccc2c1C(=O)c1c(O)c3c(c(O)c1C2=O)C[C@@](O)(C(=O)CO)C[C@@H]3O[C@H]1C[C@H](N)[C@H](O)[C@H](C)O1 [doxorubicin] | 0.598 ± 0.11
44 | C[C@]12CC[C@@H]3c4ccc(O)cc4C[C@@H](CCCCCCCCC[S+]([O-])CCCC(F)(F)C(F)(F)F)[C@H]3[C@@H]1CC[C@@H]2O (some centres not stated) [fulvestrant] | 1.55 ± 0.072
45 | Nc1ccn([C@@H]2O[C@H](CO)[C@@H](O)C2(F)F)c(=O)n1 [gemcitabine] | 1.67 ± 0.11

Same assay, conditions: 100 µM; days in culture: 85

Row | Compound | CTG-3D luminescence at 96 h
46 | O=C(O)C1(C(=O)O)CCC1.[NH2-].[NH2-].[Pt+2] [carboplatin] | 2.37
47 | COc1cc2c(Oc3ccc4[nH]c(C)cc4c3F)ncnc2cc1OCCCN1CCCC1 [cediranib] | 0.00763
48 | C[C@@H]1COCCN1c1cc(C2([S@](C)(=N)=O)CC2)nc(-c2cc[nH]c3nccc2-3)n1 [ceralasertib] | 0.827
49 | Cc1cc(Nc2ncc(Cl)c(Nc3ccccc3S(=O)(=O)C(C)C)n2)c(OC(C)C)cc1C1CCNCC1 [ceritinib] | -0.00537
50 | O=C(c1ccc(F)c(F)c1Nc1ccc(I)cc1F)N1CC(O)([C@@H]2CCCCN2)C1 [cobimetinib] | 0.017
51 | C[C@H](NC(=O)CCC(F)(F)F)C(=O)N[C@@H]1C(=O)N(CCO)c2ncccc2-c2ccccc21 [crenigacestat] | 2.02
52 | COc1cccc2c1C(=O)c1c(O)c3c(c(O)c1C2=O)C[C@@](O)(C(=O)CO)C[C@@H]3O[C@H]1C[C@H](N)[C@H](O)[C@H](C)O1 [doxorubicin] | 0.808
53 | C[C@]12CC[C@@H]3c4ccc(O)cc4C[C@@H](CCCCCCCCC[S+]([O-])CCCC(F)(F)C(F)(F)F)[C@H]3[C@@H]1CC[C@@H]2O (some centres not stated) [fulvestrant] | 1.89
54 | Nc1ccn([C@@H]2O[C@H](CO)[C@@H](O)C2(F)F)c(=O)n1 [gemcitabine] | 1.7

Same assay, conditions: 625 fM

Row | Compound | CTG-3D luminescence at 96 h
55 | O=C(O)C1(C(=O)O)CCC1.[NH2-].[NH2-].[Pt+2] [carboplatin] | 1.97 ± 0.042
56 | COc1cc2c(Oc3ccc4[nH]c(C)cc4c3F)ncnc2cc1OCCCN1CCCC1 [cediranib] | 2.35 ± 0.29
57 | C[C@@H]1COCCN1c1cc(C2([S@](C)(=N)=O)CC2)nc(-c2cc[nH]c3nccc2-3)n1 [ceralasertib] | 2.165 ± 0.019
58 | Cc1cc(Nc2ncc(Cl)c(Nc3ccccc3S(=O)(=O)C(C)C)n2)c(OC(C)C)cc1C1CCNCC1 [ceritinib] | 2.22 ± 0.34
59 | O=C(c1ccc(F)c(F)c1Nc1ccc(I)cc1F)N1CC(O)([C@@H]2CCCCN2)C1 [cobimetinib] | 2.01 ± 0.47
60 | C[C@H](NC(=O)CCC(F)(F)F)C(=O)N[C@@H]1C(=O)N(CCO)c2ncccc2-c2ccccc21 [crenigacestat] | 2.32 ± 0.025
61 | COc1cccc2c1C(=O)c1c(O)c3c(c(O)c1C2=O)C[C@@](O)(C(=O)CO)C[C@@H]3O[C@H]1C[C@H](N)[C@H](O)[C@H](C)O1 [doxorubicin] | 2.26 ± 0.35
62 | C[C@]12CC[C@@H]3c4ccc(O)cc4C[C@@H](CCCCCCCCC[S+]([O-])CCCC(F)(F)C(F)(F)F)[C@H]3[C@@H]1CC[C@@H]2O (some centres not stated) [fulvestrant] | 1.88 ± 0.47
63 | Nc1ccn([C@@H]2O[C@H](CO)[C@@H](O)C2(F)F)c(=O)n1 [gemcitabine] | 2.23 ± 0.15

Same assay, conditions: 625 fM; days in culture: 85

Row | Compound | CTG-3D luminescence at 96 h
64 | O=C(O)C1(C(=O)O)CCC1.[NH2-].[NH2-].[Pt+2] [carboplatin] | 2.62
65 | COc1cc2c(Oc3ccc4[nH]c(C)cc4c3F)ncnc2cc1OCCCN1CCCC1 [cediranib] | 2.35
66 | C[C@@H]1COCCN1c1cc(C2([S@](C)(=N)=O)CC2)nc(-c2cc[nH]c3nccc2-3)n1 [ceralasertib] | 2.52
67 | Cc1cc(Nc2ncc(Cl)c(Nc3ccccc3S(=O)(=O)C(C)C)n2)c(OC(C)C)cc1C1CCNCC1 [ceritinib] | 2.49
68 | O=C(c1ccc(F)c(F)c1Nc1ccc(I)cc1F)N1CC(O)([C@@H]2CCCCN2)C1 [cobimetinib] | 2.45
69 | C[C@H](NC(=O)CCC(F)(F)F)C(=O)N[C@@H]1C(=O)N(CCO)c2ncccc2-c2ccccc21 [crenigacestat] | 3.08
70 | COc1cccc2c1C(=O)c1c(O)c3c(c(O)c1C2=O)C[C@@](O)(C(=O)CO)C[C@@H]3O[C@H]1C[C@H](N)[C@H](O)[C@H](C)O1 [doxorubicin] | 2.4
71 | C[C@]12CC[C@@H]3c4ccc(O)cc4C[C@@H](CCCCCCCCC[S+]([O-])CCCC(F)(F)C(F)(F)F)[C@H]3[C@@H]1CC[C@@H]2O (some centres not stated) [fulvestrant] | 2.52
72 | Nc1ccn([C@@H]2O[C@H](CO)[C@@H](O)C2(F)F)c(=O)n1 [gemcitabine] | 2.11
